Reference: ChEMBL document CHEMBL1148572, “1-((S)-2-aminopropyl)-1H-indazol-6-ol: a potent peripherally acting 5-HT2 receptor agonist with ocular hypotensive activity” (J Med Chem, 2006)
pKi: −log10 of the molar value.

Tests used:
[1] = target: Glutamate receptor ionotropic kainate (Homo sapiens) (UniProt P39086+Q16478+Q16099+Q13002+Q13003); assay: Inhibition of kainate receptor at 100 nM; type: protein-complex assay
[2] = target: Dopamine receptor (Homo sapiens) (UniProt P14416+P35462+P21918+P21917+P21728); assay: Inhibition of non selective binding to dopamine receptor at 1 nM; type: protein assay
[3] = target: Estrogen receptor (Homo sapiens) (UniProt Q92731+P03372); assay: Inhibition of estrogen receptor at 100 nM; type: protein assay
[4] = target: Platelet-activating factor receptor (Homo sapiens) (UniProt P25105); assay: Inhibition of PAF at 10 uM
Platelet-activating factor receptor (Homo sapiens), sequence (P25105 whole entry): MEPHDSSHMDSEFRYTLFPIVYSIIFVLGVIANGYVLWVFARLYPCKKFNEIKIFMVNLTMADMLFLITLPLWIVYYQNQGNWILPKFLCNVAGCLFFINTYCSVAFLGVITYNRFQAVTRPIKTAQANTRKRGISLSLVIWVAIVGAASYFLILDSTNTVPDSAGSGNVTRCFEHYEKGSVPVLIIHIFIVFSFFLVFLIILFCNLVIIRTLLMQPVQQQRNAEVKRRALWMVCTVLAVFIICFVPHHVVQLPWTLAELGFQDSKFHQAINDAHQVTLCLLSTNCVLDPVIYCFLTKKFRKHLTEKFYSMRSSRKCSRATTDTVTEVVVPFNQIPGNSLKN

[5] = target: Glutamate [NMDA] receptor (Homo sapiens) (UniProt Q05586+Q12879+Q13224+O15399+O60391+Q14957+Q8TCU5); assay: Inhibition of agonist site of NMDA receptor at 1 nM; type: functional
[6] = target: T1, Endothelin-1 receptor (Homo sapiens) (UniProt P25101); assay: Inhibition of human recombinant endothelin 1 receptor at 100 nM
T1 sequence (whole entry): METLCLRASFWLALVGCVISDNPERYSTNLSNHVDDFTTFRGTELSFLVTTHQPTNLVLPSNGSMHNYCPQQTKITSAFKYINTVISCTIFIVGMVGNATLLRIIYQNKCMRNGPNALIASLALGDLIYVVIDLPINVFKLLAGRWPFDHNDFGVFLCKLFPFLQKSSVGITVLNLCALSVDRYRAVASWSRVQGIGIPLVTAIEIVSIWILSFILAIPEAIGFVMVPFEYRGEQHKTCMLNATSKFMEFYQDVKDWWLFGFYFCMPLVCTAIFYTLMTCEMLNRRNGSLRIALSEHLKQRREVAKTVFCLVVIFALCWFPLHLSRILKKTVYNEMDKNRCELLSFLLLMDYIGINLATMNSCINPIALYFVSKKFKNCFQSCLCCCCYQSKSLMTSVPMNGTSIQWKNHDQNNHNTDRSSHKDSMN

[7] = target: Epidermal growth factor receptor (Homo sapiens) (UniProt P00533); assay: Inhibition of EGFR at 100 nM
Epidermal growth factor receptor (Homo sapiens), sequence (P00533 whole entry): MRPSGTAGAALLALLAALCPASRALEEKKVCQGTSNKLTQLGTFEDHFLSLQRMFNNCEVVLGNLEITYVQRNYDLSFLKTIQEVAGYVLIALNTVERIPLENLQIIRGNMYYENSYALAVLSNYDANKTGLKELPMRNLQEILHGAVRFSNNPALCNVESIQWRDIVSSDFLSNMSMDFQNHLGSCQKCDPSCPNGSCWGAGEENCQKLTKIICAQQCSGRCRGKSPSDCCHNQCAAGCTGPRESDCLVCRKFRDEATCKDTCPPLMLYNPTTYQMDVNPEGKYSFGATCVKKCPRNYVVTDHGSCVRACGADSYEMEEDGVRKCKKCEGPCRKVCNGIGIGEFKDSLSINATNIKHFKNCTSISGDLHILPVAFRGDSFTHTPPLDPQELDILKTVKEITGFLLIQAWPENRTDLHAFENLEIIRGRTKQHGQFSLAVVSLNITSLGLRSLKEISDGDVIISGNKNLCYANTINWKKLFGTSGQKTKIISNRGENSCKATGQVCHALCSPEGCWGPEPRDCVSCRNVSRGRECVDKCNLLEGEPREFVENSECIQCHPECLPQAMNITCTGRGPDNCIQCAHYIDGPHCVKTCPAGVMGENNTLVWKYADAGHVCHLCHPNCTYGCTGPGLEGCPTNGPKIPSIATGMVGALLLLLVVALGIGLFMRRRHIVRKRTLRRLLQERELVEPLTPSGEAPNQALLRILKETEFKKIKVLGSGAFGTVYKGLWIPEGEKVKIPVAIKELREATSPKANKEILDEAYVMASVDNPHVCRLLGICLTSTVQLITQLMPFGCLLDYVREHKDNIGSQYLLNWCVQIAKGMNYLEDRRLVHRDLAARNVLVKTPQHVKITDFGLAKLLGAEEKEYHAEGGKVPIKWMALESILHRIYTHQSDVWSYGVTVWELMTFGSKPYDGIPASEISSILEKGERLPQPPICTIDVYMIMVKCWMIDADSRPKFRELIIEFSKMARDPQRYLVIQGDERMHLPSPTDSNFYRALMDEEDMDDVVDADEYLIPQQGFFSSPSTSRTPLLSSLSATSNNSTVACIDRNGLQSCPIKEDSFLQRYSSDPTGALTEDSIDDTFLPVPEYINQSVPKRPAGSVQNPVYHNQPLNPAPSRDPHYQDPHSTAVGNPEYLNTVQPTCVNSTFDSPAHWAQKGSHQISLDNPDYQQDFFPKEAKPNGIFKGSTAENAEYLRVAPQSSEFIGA

[8] = target: T2, B2 bradykinin receptor (Homo sapiens) (UniProt P30411); assay: Inhibition of bradykinin 2 receptor at 100 nM
T2 sequence (whole entry): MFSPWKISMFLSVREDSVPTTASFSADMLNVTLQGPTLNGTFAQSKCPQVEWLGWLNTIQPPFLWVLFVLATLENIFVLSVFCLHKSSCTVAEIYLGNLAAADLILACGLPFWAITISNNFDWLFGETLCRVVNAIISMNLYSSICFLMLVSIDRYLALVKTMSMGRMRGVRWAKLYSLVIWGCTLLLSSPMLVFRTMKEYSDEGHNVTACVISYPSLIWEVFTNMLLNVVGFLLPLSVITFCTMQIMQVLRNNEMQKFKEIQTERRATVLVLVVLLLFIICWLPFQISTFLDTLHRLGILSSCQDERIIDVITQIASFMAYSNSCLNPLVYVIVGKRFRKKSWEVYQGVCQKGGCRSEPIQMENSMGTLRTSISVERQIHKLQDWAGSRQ

[9] = target: T3, Cysteinyl leukotriene receptor 1 (Homo sapiens) (UniProt Q9Y271); assay: Inhibition of leukotriene D4 at 1 nM
T3 sequence (whole entry): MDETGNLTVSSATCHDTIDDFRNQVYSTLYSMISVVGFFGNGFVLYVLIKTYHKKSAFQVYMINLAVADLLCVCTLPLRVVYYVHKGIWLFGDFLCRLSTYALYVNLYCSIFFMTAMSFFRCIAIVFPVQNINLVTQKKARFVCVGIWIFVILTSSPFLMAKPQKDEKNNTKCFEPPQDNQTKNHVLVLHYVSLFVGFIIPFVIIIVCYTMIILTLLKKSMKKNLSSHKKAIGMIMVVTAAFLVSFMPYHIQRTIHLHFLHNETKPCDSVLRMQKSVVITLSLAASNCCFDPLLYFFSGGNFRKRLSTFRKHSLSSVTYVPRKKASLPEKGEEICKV

[10] = target: Adrenergic receptor beta (Homo sapiens) (UniProt P08588+P07550+P13945); assay: Inhibition of non selective binding to adrenergic beta receptor at 100 nM; type: protein assay
[11] = Inhibitory activity at TBOB site in GABA gated chloride channel at 100 nM
Homo sapiens [12] = species on record: Homo sapiens; assay: Inhibition of inositol triphosphate IP3 at 10 uM; type: functional
[13] = Inhibitory activity at site 2 of sodium channel at 1 nM
[14] = target: 5-hydroxytryptamine receptor 4 (Homo sapiens, UniProt Q13639); assay: Inhibitory activity against 5HT4 receptor
5-hydroxytryptamine receptor 4, sequence (Q13639 whole entry): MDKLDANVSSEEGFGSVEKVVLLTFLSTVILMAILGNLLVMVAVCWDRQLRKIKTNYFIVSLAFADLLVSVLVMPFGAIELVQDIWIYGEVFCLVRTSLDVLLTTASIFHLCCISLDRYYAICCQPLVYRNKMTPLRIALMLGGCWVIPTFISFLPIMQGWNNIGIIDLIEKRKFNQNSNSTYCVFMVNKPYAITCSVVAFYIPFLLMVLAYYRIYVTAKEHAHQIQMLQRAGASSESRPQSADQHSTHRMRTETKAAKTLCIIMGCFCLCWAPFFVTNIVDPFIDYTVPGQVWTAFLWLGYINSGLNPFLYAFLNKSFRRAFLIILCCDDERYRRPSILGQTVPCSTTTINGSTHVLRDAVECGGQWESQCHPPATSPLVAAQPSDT

Homo sapiens [15] = species on record: Homo sapiens; assay: Inhibition of inositol triphosphate IP3 at 1 nM; type: functional
[16] = target: Sigma non-opioid intracellular receptor 1 (Homo sapiens) (UniProt Q99720); assay: Inhibition of non selective binding to sigma receptor at 1 nM
Sigma non-opioid intracellular receptor 1 (Homo sapiens), sequence (Q99720 whole entry): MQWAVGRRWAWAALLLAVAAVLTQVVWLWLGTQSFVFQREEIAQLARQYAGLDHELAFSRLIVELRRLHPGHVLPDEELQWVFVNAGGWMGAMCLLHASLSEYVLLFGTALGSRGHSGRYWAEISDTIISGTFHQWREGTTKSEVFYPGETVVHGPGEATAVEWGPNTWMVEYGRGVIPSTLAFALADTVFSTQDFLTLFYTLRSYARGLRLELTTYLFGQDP

[17] = Distribution coefficient at pH 7.4; type: physicochemical; conditions: octanol/water
[18] = target: T4, monoamine oxidase A (MAO-A) (Rattus norvegicus, UniProt P21396); assay: Inhibition of monoamine oxidase A in rat brain at 10 uM; type: tissue-based
T4 sequence (P21396 whole entry): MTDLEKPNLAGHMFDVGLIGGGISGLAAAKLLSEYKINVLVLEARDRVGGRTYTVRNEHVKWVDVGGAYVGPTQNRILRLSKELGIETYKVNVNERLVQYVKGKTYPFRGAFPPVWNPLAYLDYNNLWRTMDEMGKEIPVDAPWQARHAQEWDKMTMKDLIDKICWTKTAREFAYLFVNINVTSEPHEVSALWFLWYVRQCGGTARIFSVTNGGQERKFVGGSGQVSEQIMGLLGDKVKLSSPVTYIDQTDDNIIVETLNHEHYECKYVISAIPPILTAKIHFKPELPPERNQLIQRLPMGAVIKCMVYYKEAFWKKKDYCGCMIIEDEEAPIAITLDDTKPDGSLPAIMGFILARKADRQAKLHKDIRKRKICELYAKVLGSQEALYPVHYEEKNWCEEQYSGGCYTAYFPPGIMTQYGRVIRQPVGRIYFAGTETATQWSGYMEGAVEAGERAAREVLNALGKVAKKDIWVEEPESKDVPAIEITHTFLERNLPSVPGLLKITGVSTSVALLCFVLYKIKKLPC

Compound `C[C@H](N)Cn1ncc2ccc(O)cc21` has an inhibition [1] of 6.16%, an inhibition [2] of 10.7% and an inhibition [3] of 13.3%. It also gave an inhibition [4] of 34.4%, an inhibition [5] of 14.9% and an inhibition [6] of 2.04%. The inhibition [7] was 1.86%, the inhibition [8] was 0.41% and the inhibition [9] was 2.65%. The inhibition [10] was -7.77%, the inhibition [11] was -5.9% and the inhibition (Homo sapiens [12]) was 2.11%. It also gave an inhibition [13] of 10.3%, a pKi [14] of 6.29 and an inhibition (Homo sapiens [15]) of 6.53%. For the same compound, the inhibition [16] was -2.35%, the logD [17] was 0.693 and the inhibition at 10 µM [18] was 0.82%.
